For one cell line, relative viability results are on record in the supplement of paper PMC10307832.

Experiment in all cases: relative viability (nuclei count vs DMSO), 5 days (fraction); higher = more cells survive
Compound in assay [1]: C1CC1C(=O)NC2=NNC3=C2C=CC(=C3)C4=CC(=CC=C4)C(=O)NC5CC5 [XMD13-2] + Nc1nc2[nH]cc(CCc3ccc(C(=O)N[C@@H](CCC(=O)O)C(=O)O)cc3)c2c(=O)[nH]1 [Pemetrexed] (partner 0.2 µM)
Summed up:
(§1)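 Lung cancer cell lines in 1536-well plates were dosed by pin tool the day after seeding, either with one drug alone or with a fixed anchor-drug dose plus five library-drug doses (not always all listed) in √10 steps. After 5 days, cells were fixed and their nuclei stained in one step (final 0.05% Triton X-100, 1% formaldehyde, 1 ug/ml Hoechst), then counted on 4× images. Relative viability is the nuclei count in treated wells divided by that in vehicle wells. Values are medians of duplicate plates.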

Compound in assay [2]: Cc1ccc(C(=O)Nc2cccc(C(F)(F)F)c2)cc1Nc1cncc(C(N)=O)c1 [ALW-II-49-7] + Cc1nc(Nc2ncc(C(=O)Nc3c(C)cccc3Cl)s2)cc(N2CCN(CCO)CC2)n1 [Dasatinib] (partner 0.075 µM)
Summed up: as §1

Compound in assay [3]: Cc1nc(Nc2ncc(C(=O)Nc3c(C)cccc3Cl)s2)cc(N2CCN(CCO)CC2)n1 [Dasatinib] + CC(=O)Nc1cccc(-n2c(=O)n(C3CC3)c(=O)c3c(Nc4ccc(I)cc4F)n(C)c(=O)c(C)c32)c1 [Trametinib] (partner 0.02 µM)
Summed up:
as §1

Compound in assay [4]: Cc1nc(Nc2ncc(C(=O)Nc3c(C)cccc3Cl)s2)cc(N2CCN(CCO)CC2)n1 [Dasatinib] + CC(=O)c1c(C)c2cnc(Nc3ccc(N4CCNCC4)cn3)nc2n(C2CCCC2)c1=O [Palbociclib] (partner 0.5 µM)
Summed up: as §1

With UMC-11, the relative viability in assay [1] (first compound 0.05 µM) was determined as 0.914; in assay [1] (first compound 0.1581 µM), 0.761; in assay [1] (first compound 0.5 µM) it was 0.791; in assay [1] (first compound 1.581 µM), 0.845; in assay [1] (first compound 5 µM), 0.772; in assay [2] (first compound 0.08 µM) it was 0.428. Further, the relative viability in assay [2] (first compound 0.253 µM) worked out at 0.453; in assay [2] (first compound 0.8 µM) it was 0.473; in assay [2] (first compound 2.53 µM), 0.456; in assay [2] (first compound 8 µM), 0.519; in assay [3] (first compound 0.005 µM) it was 0.675; in assay [3] (first compound 0.01581 µM), 0.63. The relative viability in assay [3] (first compound 0.05 µM) was 0.631; in assay [3] (first compound 0.1581 µM), 0.358; in assay [3] (first compound 0.5 µM) it was 0.317; in assay [4] (first compound 0.005 µM), 0.335; in assay [4] (first compound 0.01581 µM) it was 0.278; in assay [4] (first compound 0.05 µM) it was 0.27. Besides, the relative viability in assay [4] (first compound 0.1581 µM) came to 0.236; in assay [4] (first compound 0.5 µM) it was 0.188.
